# Test results as given in patent US12649726B2, “Substituted tetrahydroisoquinoline derivative as a D1 positive allosteric modulator” (UCB Biopharma SRL, priority 2020, dated 2026).
# Several values for one entry are separate records, joined by “and”; a condition that tells them apart may be missing. Equal values may be shown once.
# Legend:
# Assay type in all cases: cell-based
# [1] = target: T1, human GABAA receptor α1,β2 and γ2 subunits (Homo sapiens, UniProt P14867+P18507+P47870); assay: Automated patch clamp GABAA receptor inhibition assay (IonFlux HT); details: 10 μM compound, 15 μM GABA, CHO-K1 cells, holding potential −60 mV; read-out: percentage of inhibition of the GABAA receptor
# T1 construct: expressed in transfected cells; host or cells: CHO-K1 cells
# Description: CHO-K1 cells stably expressing human GABAA receptor α1,β2 and γ2 subunits were used. The cells were harvested using trypsin and maintained in serum-free medium at room temperature. The cells were washed and re-suspended in extracellular solution before testing.
# Experiments on human GABAA (α1β2γ2) channels were conducted using an automated patch clamp assay (IonFlux™ HT). Compounds were tested at 3 concentrations (0.1, 1, and 10 μM) in 3 to 4 cells. The external solution for recording GABAA currents was composed of sodium chloride 137 mM, potassium chloride 4 mM, calcium chloride 1.8 mM, magnesium chloride 1 mM, HEPES 10 mM, and glucose 10 mM. Both external and internal solutions were titrated with NaOH or KOH to obtain a pH of 7.35 or 7.3, respectively. The internal pipette solution contained potassium fluoride 70 mM, potassium chloride 60 mM, sodium chloride 70 mM, HEPES 5 mM, EGTA 5 mM, and Magnesium ATP 4 mM. The final concentration of vehicle used to dilute compounds was 0.33% DMSO in each well. Bicuculline (0.032 to 100 μM) was used as positive control inhibitor. GABA (15 μM) was used as agonist. […]
# The compound addition sequence was the following: one addition of the EC80 concentration of GABA was added to establish baseline response. […] Peak inward currents in response to the GABA additions in the presence of a single concentration of compound were measured. […]
# dopamine D1 receptor [2] = target: T2, dopamine D1 receptor (Homo sapiens, UniProt P21728); assay: cAMP HTRF potentiation assay (presence of EC20 dopamine)
# T2 construct: host or cells: LMtk (Ltk−) mouse fibroblast cells
# Source text: (§1) Assays have been designed to measure the effects of compounds in accordance with the present invention in the absence of dopamine (“activation assay”) and in the presence of dopamine (“potentiation assay”).
# The potentiation assay measures the ability of compounds to increase the levels of cAMP produced by a low-threshold concentration of dopamine. The concentration of dopamine used ([EC20]) is designed to produce 20% stimulation compared to the maximal response (100%) seen with increasing the concentration of dopamine. To measure this potentiation increasing concentrations of the compound with the [EC20] of dopamine are incubated and the potentiation is measured as increases in cAMP production and concentration of compound which produces 50% of the potentiation of the cAMP levels is measured.
# (§2) Cells were cultured at 37° C. in a humidified atmosphere of 5% CO2. […]
# (§3) The measurement of changes in intracellular cyclic adenosinemonophopshpate (cAMP) was determined using the HTRF cAMP dynamic assay kit from CisBio (Codolet, France). Using homogenous time-resolved fluorescence technology, the assay is based on competition between native cAMP produced by cells and cAMP labelled with the dye d2. The tracer binding is determined by an anti-cAMP antibody labeled with cryptate. […]
# dopamine D1 receptor [3] = target: T2, dopamine D1 receptor; assay: cAMP HTRF activation assay (absence of dopamine); details: 10 μM compound, LMtk (Ltk−) cells expressing D1, read-out: activation (compared to dopamine maximal response)
# Source text: as §1
# The activation assay measures the stimulation of the production of cyclic adenosinemonophosphate (cAMP) in the Homogeneous Time Resolved Fluorescent (HTRF) assay, with the maximum increase in cAMP by increasing concentrations of the endogenous agonist, dopamine, defined as 100% activation.
# as §2
# as §3, with “cryptate. The effects of the compound alone (agonism) was determined by performing the assay in the absence of dopamine, whilst the effect of the compound as a positive allosteric modulator (PAM) was determined in the presence of an EC20 concentration of dopamine.” for “cryptate.”
# T2 sequence (P21728 whole entry): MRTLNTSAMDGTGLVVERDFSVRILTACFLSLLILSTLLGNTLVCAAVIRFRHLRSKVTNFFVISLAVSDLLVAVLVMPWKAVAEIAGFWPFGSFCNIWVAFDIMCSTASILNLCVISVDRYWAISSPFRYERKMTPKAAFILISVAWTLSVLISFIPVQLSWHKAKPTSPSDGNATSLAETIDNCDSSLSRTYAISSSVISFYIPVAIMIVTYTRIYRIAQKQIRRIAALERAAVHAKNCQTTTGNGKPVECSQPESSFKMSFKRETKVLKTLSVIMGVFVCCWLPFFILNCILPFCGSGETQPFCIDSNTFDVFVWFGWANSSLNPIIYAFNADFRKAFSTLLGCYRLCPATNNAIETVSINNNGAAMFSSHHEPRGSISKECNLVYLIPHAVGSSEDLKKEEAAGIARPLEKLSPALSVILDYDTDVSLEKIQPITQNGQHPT
# T1 sequence (P14867 28-456): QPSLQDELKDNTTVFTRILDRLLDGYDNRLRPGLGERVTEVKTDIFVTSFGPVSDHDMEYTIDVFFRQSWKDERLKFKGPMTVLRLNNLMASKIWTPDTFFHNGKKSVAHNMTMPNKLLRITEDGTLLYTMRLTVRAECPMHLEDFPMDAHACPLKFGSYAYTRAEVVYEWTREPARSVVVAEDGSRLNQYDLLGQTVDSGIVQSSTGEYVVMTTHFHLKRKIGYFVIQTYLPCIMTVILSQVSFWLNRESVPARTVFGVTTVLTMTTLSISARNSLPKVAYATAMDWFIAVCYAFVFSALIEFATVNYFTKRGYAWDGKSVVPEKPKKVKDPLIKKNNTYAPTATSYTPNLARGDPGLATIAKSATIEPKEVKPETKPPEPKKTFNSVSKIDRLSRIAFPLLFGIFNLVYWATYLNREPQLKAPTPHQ
# T1 sequence (P47870 25-512 limits assumed): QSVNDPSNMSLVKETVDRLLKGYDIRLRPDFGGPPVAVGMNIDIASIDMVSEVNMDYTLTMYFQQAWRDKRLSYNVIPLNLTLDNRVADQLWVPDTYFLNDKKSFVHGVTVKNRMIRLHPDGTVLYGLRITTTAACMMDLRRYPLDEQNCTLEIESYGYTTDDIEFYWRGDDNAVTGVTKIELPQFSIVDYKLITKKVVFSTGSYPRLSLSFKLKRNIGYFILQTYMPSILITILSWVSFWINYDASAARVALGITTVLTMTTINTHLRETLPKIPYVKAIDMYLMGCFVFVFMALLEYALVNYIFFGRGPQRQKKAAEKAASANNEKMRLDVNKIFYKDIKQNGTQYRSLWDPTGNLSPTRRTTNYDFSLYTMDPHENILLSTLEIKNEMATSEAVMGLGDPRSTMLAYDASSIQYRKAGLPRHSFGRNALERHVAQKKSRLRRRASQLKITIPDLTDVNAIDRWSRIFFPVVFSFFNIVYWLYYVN
# T1 sequence (P18507 40-475): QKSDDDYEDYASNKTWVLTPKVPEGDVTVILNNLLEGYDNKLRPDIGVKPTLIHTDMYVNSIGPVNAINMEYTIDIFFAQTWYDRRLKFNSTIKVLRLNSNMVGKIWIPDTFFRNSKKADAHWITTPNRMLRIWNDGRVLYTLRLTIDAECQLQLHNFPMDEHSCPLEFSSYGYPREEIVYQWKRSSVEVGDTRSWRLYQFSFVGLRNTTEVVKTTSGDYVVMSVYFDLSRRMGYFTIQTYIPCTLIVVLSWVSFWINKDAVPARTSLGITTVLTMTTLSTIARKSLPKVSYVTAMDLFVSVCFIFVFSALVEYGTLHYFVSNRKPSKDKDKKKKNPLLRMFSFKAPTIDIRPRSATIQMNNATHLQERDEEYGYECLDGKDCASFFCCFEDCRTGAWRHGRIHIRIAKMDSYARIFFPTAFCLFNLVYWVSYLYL
smiles,measurement,setting,value
"C[C@H]1c2cccc(C(C)(C)O)c2C[C@H](CO)N1C(=O)Cc1c(Cl)ccc2[nH]nc(Cl)c12 [compound of formula (I), 2-(3,5-dichloro-1H-indazol-4-yl)-1-[(1S,3R)-3-(hydroxymethyl)-5-(1-hydroxy-1-methyl-ethyl)-1-methyl-3,4-dihydro-1H-isoquinolin-2-yl]ethanone]",inhibition at 10 µM,[1],< 0.1%
same,"Erel (relative efficacy, maximal % potentiation vs dopamine maximal response)","dopamine D1 receptor [2]; in presence of [EC20] dopamine (1.1 nM), dopamine maximum = 100%",about 62%
same,EC50,"dopamine D1 receptor [2]; potentiation of cAMP in presence of [EC20] dopamine (1.1 nM), LMtk (Ltk−) cells expressing D1",~6.31 nM and < 31.6 nM
same,Emax at 10 µM,dopamine D1 receptor [3],< 20%
